# Reference: ChEMBL document CHEMBL4507273 (2021)
# Assays:
# [1] = target: 5-hydroxytryptamine receptor 5A (Homo sapiens, UniProt P47898); experiment: GPCRScan assay: inhibition of 5-HT5A; set-up: radioligand conc. used [nm] 2.0 - 3.3, parental cells Flp-In CHO
# [2] = target: Muscarinic acetylcholine receptor M2 (Homo sapiens, UniProt P08172); experiment: GPCRScan assay: inhibition of M2; set-up: radioligand conc. used [nm] 0.2 – 1.0, parental cells stable CHO
# [3] = target: 5'-AMP-activated protein kinase catalytic subunit alpha-1 (Homo sapiens) (UniProt Q13131); conditions: Compound concentration 1000.0 nM
# [4] = target: Serine/threonine-protein kinase B-raf (Homo sapiens) (UniProt P15056); conditions: Compound concentration 1000.0 nM
# [5] = target: Cyclin-dependent kinase 4 (Homo sapiens) (UniProt P11802); conditions: Compound concentration 1000.0 nM
# Sequence of Cyclin-dependent kinase 4 (Homo sapiens) (P11802 whole entry): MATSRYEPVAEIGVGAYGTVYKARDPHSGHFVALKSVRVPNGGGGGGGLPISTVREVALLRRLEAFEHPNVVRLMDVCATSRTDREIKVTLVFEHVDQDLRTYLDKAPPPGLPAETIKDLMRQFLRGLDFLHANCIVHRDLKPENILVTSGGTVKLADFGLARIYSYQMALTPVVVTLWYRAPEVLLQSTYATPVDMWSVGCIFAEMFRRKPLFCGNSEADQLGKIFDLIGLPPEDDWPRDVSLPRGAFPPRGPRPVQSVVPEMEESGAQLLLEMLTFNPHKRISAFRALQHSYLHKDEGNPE
# [6] = target: Cyclin-dependent kinase 5 (Homo sapiens) (UniProt Q00535); conditions: Compound concentration 1000.0 nM
# [7] = target: Cyclin-dependent kinase-like 2 (Homo sapiens) (UniProt Q92772); conditions: Compound concentration 1000.0 nM
# Sequence of Cyclin-dependent kinase-like 2 (Homo sapiens) (Q92772 whole entry): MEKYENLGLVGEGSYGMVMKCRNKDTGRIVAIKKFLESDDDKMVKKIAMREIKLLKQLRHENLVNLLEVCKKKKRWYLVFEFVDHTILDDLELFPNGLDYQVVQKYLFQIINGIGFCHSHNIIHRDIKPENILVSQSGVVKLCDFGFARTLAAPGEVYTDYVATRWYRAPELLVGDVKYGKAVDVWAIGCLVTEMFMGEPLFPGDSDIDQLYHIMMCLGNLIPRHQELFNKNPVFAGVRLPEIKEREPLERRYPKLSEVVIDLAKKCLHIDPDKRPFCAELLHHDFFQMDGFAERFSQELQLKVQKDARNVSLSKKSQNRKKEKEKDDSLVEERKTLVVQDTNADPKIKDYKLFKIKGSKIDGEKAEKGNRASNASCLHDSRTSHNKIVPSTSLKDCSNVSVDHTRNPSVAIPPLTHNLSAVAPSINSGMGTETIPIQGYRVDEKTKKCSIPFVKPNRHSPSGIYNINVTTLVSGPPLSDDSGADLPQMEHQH
# [8] = target: Serine/threonine-protein kinase MRCK gamma (Homo sapiens) (UniProt Q6DT37); conditions: Compound concentration 1000.0 nM
# [9] = target: Dual specificity tyrosine-phosphorylation-regulated kinase 2 (Homo sapiens) (UniProt Q92630); conditions: Compound concentration 1000.0 nM
# [10] = target: Focal adhesion kinase 1 (Homo sapiens) (UniProt Q05397); conditions: Compound concentration 1000.0 nM
# [11] = tested on: Receptor-type tyrosine-protein kinase FLT3 (Homo sapiens), P36888 [UNDEFINED MUTATION]; conditions: Compound concentration 1000.0 nM
# [12] = target: Homeodomain-interacting protein kinase 2 (Homo sapiens) (UniProt Q9H2X6); conditions: Compound concentration 1000.0 nM
# [13] = target: Mitogen-activated protein kinase kinase kinase kinase 1 (Homo sapiens) (UniProt Q92918); conditions: Compound concentration 1000.0 nM
# [14] = target: Insulin-like growth factor 1 receptor (Homo sapiens) (UniProt P08069); conditions: Compound concentration 1000.0 nM
# [15] = target: Inhibitor of nuclear factor kappa-B kinase subunit alpha (Homo sapiens) (UniProt O15111); conditions: Compound concentration 1000.0 nM
# Sequence of Inhibitor of nuclear factor kappa-B kinase subunit alpha (Homo sapiens) (O15111 whole entry): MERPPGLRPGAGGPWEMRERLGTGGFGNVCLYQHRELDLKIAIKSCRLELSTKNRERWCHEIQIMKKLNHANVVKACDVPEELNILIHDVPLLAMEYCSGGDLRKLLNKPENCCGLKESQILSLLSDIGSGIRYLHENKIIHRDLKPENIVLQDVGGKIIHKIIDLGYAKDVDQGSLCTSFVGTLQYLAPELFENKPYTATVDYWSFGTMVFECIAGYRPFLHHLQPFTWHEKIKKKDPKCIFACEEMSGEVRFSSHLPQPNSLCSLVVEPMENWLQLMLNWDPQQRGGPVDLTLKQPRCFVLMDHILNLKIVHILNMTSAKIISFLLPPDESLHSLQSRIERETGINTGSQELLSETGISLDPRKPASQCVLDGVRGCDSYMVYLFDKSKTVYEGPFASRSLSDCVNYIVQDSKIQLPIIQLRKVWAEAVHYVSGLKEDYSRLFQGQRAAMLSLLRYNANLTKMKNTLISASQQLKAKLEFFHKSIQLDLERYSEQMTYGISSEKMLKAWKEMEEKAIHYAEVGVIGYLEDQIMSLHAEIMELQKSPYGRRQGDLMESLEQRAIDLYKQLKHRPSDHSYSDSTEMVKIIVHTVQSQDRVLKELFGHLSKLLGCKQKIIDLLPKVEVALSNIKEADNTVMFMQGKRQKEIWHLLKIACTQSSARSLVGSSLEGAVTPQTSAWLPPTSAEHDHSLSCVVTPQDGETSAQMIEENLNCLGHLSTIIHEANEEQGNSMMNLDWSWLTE
# [16] = target: Mitogen-activated protein kinase kinase kinase 15 (Homo sapiens) (UniProt Q6ZN16); conditions: Compound concentration 1000.0 nM
# [17] = target: Mitogen-activated protein kinase kinase kinase kinase 3 (Homo sapiens) (UniProt Q8IVH8); conditions: Compound concentration 1000.0 nM
# Sequence of Mitogen-activated protein kinase kinase kinase kinase 3 (Homo sapiens) (Q8IVH8 whole entry): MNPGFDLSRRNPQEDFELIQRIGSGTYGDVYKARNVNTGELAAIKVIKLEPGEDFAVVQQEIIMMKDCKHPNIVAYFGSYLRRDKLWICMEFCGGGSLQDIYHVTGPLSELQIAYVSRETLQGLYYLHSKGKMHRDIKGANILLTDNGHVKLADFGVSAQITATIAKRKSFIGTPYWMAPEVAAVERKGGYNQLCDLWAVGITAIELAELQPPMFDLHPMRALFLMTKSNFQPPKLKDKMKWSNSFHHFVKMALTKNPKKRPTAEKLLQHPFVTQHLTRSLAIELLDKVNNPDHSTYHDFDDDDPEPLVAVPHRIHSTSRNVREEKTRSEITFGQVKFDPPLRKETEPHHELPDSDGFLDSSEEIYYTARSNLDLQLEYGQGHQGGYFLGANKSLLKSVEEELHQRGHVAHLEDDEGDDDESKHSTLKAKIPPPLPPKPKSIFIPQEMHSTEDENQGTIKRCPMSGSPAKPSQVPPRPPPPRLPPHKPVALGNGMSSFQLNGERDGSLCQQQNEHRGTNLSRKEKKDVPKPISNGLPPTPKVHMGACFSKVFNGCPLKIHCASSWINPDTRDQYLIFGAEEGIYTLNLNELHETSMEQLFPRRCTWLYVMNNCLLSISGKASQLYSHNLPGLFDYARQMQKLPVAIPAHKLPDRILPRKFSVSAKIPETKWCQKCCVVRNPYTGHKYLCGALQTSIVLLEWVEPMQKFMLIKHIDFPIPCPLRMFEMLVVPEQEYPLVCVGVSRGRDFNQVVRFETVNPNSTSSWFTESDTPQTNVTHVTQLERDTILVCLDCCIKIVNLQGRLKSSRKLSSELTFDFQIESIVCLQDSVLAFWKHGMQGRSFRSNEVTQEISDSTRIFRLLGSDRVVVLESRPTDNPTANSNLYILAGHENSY
# [18] = target: Mitogen-activated protein kinase kinase kinase kinase 5 (Homo sapiens) (UniProt Q9Y4K4); conditions: Compound concentration 1000.0 nM
# [19] = target: Myosin light chain kinase family member 4 (Homo sapiens) (UniProt Q86YV6); conditions: Compound concentration 1000.0 nM
# [20] = target: Myosin-IIIa (Homo sapiens) (UniProt Q8NEV4); conditions: Compound concentration 1000.0 nM
# [21] = target: Serine/threonine-protein kinase 38 (Homo sapiens) (UniProt Q15208); conditions: Compound concentration 1000.0 nM
# Sequence of Serine/threonine-protein kinase 38 (Homo sapiens) (Q15208 2-465 limits assumed): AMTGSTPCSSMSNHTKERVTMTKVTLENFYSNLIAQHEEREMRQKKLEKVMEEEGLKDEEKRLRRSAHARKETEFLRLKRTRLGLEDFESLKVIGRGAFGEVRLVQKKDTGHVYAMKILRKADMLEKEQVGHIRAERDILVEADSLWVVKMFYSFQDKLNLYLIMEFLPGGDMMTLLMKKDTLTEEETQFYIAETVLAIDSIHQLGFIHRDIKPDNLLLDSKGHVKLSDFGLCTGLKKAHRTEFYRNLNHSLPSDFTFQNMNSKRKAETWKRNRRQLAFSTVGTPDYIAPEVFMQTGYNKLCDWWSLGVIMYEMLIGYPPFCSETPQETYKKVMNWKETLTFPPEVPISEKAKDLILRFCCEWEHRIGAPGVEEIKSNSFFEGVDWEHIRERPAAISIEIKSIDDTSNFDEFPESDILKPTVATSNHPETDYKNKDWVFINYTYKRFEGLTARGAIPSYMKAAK
# [22] = target: Serine/threonine-protein kinase Nek11 (Homo sapiens) (UniProt Q8NG66); conditions: Compound concentration 1000.0 nM
# [23] = target: Serine/threonine-protein kinase PAK 3 (Homo sapiens) (UniProt O75914); conditions: Compound concentration 1000.0 nM
# [24] = target: Cyclin-dependent kinase 2 homolog (Plasmodium falciparum (isolate 3D7)) (UniProt P61075); conditions: Compound concentration 1000.0 nM
# Sequence of Cyclin-dependent kinase 2 homolog (Plasmodium falciparum (isolate 3D7)) (P61075 whole entry): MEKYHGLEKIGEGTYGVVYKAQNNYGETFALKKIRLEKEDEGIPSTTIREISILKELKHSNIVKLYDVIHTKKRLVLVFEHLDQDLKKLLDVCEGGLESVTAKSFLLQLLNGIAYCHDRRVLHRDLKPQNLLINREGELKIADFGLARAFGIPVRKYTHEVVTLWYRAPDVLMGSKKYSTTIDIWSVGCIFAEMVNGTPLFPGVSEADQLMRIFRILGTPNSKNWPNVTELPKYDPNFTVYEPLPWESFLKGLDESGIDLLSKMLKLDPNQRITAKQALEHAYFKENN
# [25] = target: Serine/threonine-protein kinase pim-2 (Homo sapiens) (UniProt Q9P1W9); conditions: Compound concentration 1000.0 nM
# [26] = target: Serine/threonine-protein kinase PLK4 (Homo sapiens) (UniProt O00444); conditions: Compound concentration 1000.0 nM
# [27] = target: Protein kinase C eta type (Homo sapiens) (UniProt P24723); conditions: Compound concentration 1000.0 nM
# [28] = target: Protein kinase C theta type (Homo sapiens) (UniProt Q04759); conditions: Compound concentration 1000.0 nM
# [29] = target: cGMP-dependent protein kinase 2 (Homo sapiens) (UniProt Q13237); conditions: Compound concentration 1000.0 nM
# [30] = target: Serine/threonine-protein kinase SIK3 (Homo sapiens) (UniProt Q9Y2K2); conditions: Compound concentration 1000.0 nM
# [31] = tested on: Proto-oncogene tyrosine-protein kinase receptor Ret (Homo sapiens), P07949 [V804L]; conditions: Compound concentration 1000.0 nM
# [32] = target: Ribosomal protein S6 kinase alpha-1 (Homo sapiens) (UniProt Q15418); conditions: Compound concentration 1000.0 nM
# [33] = target: Ribosomal protein S6 kinase beta-1 (Homo sapiens) (UniProt P23443); conditions: Compound concentration 1000.0 nM
# Sequence of Ribosomal protein S6 kinase beta-1 (Homo sapiens) (P23443 whole entry, looked up): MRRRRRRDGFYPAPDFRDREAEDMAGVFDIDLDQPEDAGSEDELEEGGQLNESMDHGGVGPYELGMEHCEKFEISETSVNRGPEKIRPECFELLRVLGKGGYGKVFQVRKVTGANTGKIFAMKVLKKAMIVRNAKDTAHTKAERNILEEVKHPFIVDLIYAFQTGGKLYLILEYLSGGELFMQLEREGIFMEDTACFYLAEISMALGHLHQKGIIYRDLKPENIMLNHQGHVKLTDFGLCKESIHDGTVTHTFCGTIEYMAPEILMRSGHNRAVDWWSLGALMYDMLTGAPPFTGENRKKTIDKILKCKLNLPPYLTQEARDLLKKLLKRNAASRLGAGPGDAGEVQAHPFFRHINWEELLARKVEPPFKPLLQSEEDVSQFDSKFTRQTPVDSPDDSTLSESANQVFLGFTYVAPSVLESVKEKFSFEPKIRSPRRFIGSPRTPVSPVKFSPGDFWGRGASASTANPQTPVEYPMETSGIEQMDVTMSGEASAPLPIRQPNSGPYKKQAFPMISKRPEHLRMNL
# [34] = target: Serine/threonine-protein kinase Sgk1 (Homo sapiens) (UniProt O00141); conditions: Compound concentration 1000.0 nM
# Sequence of Serine/threonine-protein kinase Sgk1 (Homo sapiens) (O00141 whole entry): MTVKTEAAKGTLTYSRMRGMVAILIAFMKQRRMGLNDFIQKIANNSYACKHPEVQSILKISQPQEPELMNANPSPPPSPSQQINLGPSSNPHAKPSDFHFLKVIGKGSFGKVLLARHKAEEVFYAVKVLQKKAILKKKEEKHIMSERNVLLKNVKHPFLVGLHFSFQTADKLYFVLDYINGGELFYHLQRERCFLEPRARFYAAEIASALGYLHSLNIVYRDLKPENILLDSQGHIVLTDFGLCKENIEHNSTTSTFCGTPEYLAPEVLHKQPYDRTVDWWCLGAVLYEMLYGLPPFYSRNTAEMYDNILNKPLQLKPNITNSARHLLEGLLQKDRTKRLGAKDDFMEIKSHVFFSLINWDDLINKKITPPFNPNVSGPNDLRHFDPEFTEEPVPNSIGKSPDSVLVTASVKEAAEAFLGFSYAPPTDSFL
# [35] = target: Serine/threonine-protein kinase 16 (Homo sapiens) (UniProt O75716); conditions: Compound concentration 1000.0 nM
# Sequence of Serine/threonine-protein kinase 16 (Homo sapiens) (O75716 whole entry): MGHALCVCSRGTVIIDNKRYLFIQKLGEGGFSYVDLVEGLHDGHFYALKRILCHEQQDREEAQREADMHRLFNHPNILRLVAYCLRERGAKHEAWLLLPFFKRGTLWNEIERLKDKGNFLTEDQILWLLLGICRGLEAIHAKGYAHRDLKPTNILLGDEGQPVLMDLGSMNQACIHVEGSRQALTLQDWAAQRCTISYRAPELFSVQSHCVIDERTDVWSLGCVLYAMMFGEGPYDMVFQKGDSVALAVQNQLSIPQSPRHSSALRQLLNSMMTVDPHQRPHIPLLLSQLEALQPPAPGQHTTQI
# [36] = target: Serine/threonine-protein kinase 33 (Homo sapiens) (UniProt Q9BYT3); conditions: Compound concentration 1000.0 nM
# [37] = target: Tyrosine-protein kinase Tec (Homo sapiens) (UniProt P42680); conditions: Compound concentration 1000.0 nM
# [38] = target: Dual specificity testis-specific protein kinase 1 (Homo sapiens) (UniProt Q15569); conditions: Compound concentration 1000.0 nM
# [39] = target: Serine/threonine-protein kinase tousled-like 1 (Homo sapiens) (UniProt Q9UKI8); conditions: Compound concentration 1000.0 nM
# [40] = target: Serine/threonine-protein kinase 32C (Homo sapiens) (UniProt Q86UX6); conditions: Compound concentration 1000.0 nM
# [41] = target: Mitogen-activated protein kinase kinase kinase 19 (Homo sapiens) (UniProt Q56UN5); conditions: Compound concentration 1000.0 nM
# [42] = target: GABA-A receptor; anion channel (Rattus norvegicus) (UniProt O09028+P15431+P18506+P18508+P19969+P20236+P23574+P23576+P28471+P28473+P30191+P62813+P63079+P63138+Q91ZM7+Q9ES14); conditions: Compound concentration 10.0 uM
# [43] = target: Alpha-1D adrenergic receptor (Homo sapiens) (UniProt P25100); conditions: Compound concentration 10.0 uM
# Sequence of 5-hydroxytryptamine receptor 5A (P47898 whole entry): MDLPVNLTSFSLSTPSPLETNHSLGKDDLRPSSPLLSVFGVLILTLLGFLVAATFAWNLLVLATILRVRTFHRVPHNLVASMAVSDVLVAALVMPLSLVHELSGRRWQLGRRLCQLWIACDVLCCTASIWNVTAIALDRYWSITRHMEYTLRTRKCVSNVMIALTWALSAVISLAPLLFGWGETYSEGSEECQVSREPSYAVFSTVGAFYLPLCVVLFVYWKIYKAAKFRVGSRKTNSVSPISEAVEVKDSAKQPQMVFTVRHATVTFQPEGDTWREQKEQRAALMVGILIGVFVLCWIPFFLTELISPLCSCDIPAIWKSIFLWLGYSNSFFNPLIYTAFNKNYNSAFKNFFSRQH
structure (smiles),measurement,setting,value
CNCc1ccccc1-c1csc([C@@H](C)Nc2nc(C)nc3cc(OC)c(OC)cc23)c1 [BAY-293],Ki,[1]; read-out: Ki,2.55 µM
same,Ki,[1]; read-out: pKi (converted),2.14 µM
same,Ki,[2],0.512 µM
same,residual activity,[3],100%
same,residual activity,[4],100%
same,residual activity,[5],90%
same,residual activity,[6],78%
same,residual activity,[7],99%
same,residual activity,[8],98%
same,residual activity,[9],92%
same,residual activity,[10],86%
same,residual activity,[11],48%
same,residual activity,[12],86%
same,residual activity,[13],83%
same,residual activity,[14],100%
same,residual activity,[15],100%
same,residual activity,[16],60%
same,residual activity,[17],99%
same,residual activity,[18],100%
same,residual activity,[19],99%
same,residual activity,[20],100%
same,residual activity,[21],60%
same,residual activity,[22],100%
same,residual activity,[23],86%
same,residual activity,[24],76%
same,residual activity,[25],100%
same,residual activity,[26],74%
same,residual activity,[27],100%
same,residual activity,[28],100%
same,residual activity,[29],85%
same,residual activity,[30],90%
same,residual activity,[31],73%
same,residual activity,[32],76%
same,residual activity,[33],86%
same,residual activity,[34],81%
same,residual activity,[35],97%
same,residual activity,[36],45%
same,residual activity,[37],100%
same,residual activity,[38],83%
same,residual activity,[39],100%
same,residual activity,[40],60%
same,residual activity,[41],71%
same,inhibition,[42],0.89%
same,inhibition,[43],75%
CNCc1ccccc1-c1csc([C@H](C)Nc2nc(C)nc3cc(OC)c(OC)cc23)c1 [BAY-294],Ki,[1]; read-out: Ki,1.06 µM
same,Ki,[1]; read-out: pKi (converted),0.977 µM
same,Ki,[2],1.47 µM
same,residual activity,[3],93%
same,residual activity,[4],97%
same,residual activity,[5],96%
same,residual activity,[6],98%
same,residual activity,[7],100%
same,residual activity,[8],100%
same,residual activity,[9],96%
same,residual activity,[10],92%
same,residual activity,[11],81%
same,residual activity,[12],76%
same,residual activity,[13],100%
same,residual activity,[14],100%
same,residual activity,[15],90%
same,residual activity,[16],77%
same,residual activity,[17],100%
same,residual activity,[18],100%
same,residual activity,[19],100%
same,residual activity,[20],100%
same,residual activity,[21],87%
same,residual activity,[22],100%
same,residual activity,[23],87%
same,residual activity,[24],71%
same,residual activity,[25],100%
same,residual activity,[26],76%
same,residual activity,[27],100%
same,residual activity,[28],100%
same,residual activity,[29],93%
same,residual activity,[30],78%
same,residual activity,[31],99%
same,residual activity,[32],93%
same,residual activity,[33],83%
same,residual activity,[34],91%
same,residual activity,[35],100%
same,residual activity,[36],73%
same,residual activity,[37],100%
same,residual activity,[38],100%
same,residual activity,[39],100%
same,residual activity,[40],71%
same,residual activity,[41],78%
same,inhibition,[42],-1.27%
same,inhibition,[43],81.2%
